The source of these data is patent US20250288704A1, “CXCR4-LIGANDS FOR DIAGNOSTIC AND THERAPEUTIC USE AND PRECURSORS THEREOF” (priority 2021, published 2025).

The nature of series [1]: Octanol/PBS partition coefficient (logD7.4). In kind it is physicochemical. As to conditions: n-octanol/PBS pH 7.4, radiolabeled compound. As for the experimental part:
The tubes were vortexed at maximum speed for 3 min to ensure equilibrium before centrifugation at 15.000×g for 5 min on a Biofuge 15 from Heraeus Holding GmbH (Osterode, Germany). An aliquot of 100 μL of each fraction was measured in the γ-counter and the log D7.4 calculated as follows: […]

The target of series [2] is CXCR4 (Homo sapiens, UniProt P61073). The series can be described thus: Determination of IC50: competition with 125I-Fc-131 on CXCR4-positive Jurkat cells.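 Also: test compound at 10^−5 to 10^−11 M competed for 2 h at 8 °C with the radioligand on 400,000 cells per well, bound versus free activity measured by γ-counting.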 In kind it is binding. Also on record: CXCR4-positive Jurkat T lymphocyte cells were grown in Gibco's RPMI 1640 GlutaMAX medium; endogenous in cells; host or cells: Jurkat T lymphocyte cells (whole cells in suspension, 400.000 per tube).
Chain of CXCR4 (P61073 whole entry): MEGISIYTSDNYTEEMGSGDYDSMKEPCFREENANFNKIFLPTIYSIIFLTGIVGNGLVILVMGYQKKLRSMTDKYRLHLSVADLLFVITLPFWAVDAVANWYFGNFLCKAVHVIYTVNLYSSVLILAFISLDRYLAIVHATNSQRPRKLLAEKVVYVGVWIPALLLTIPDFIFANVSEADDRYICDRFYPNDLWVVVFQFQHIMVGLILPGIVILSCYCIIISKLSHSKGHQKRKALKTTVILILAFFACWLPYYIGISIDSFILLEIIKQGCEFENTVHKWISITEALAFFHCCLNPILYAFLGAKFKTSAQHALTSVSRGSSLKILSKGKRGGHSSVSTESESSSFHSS
Procedure: For in vitro experiments, cells were counted in a hemocytometer using trypan blue as contrast agent. The cell suspension was centrifuged, and the pellet resuspended in HBSS (+1 wt % BSA) to a concentration of 2 mio cells/mL. […] 200 μL of cell suspension (400.000 cells per well) were added to obtain a final peptide concentration range of 10^−5-10^−11 M. The tubes were cooled for 2 h at 8° C. to prevent internalization. The experiment was stopped by removal of the supernatant. 200 μL HBSS were added onto the cells, the suspension centrifuged, and the supernatant pooled with the respective first fractions. This step was repeated once more before the tubes containing the supernatants and the ones containing the cell pellets were subjected to activity measurement in the γ-counter.

Series [3] is described as follows: Biodistribution in Jurkat tumor-bearing CB-17 SCID mice. In kind it is in vivo. The note with it: female, CB-17 SCID, mouse, in vivo, iv, total radioactivity, 1 h p.i., Jurkat xenograft, CB-17 SCID female mice. As for the experimental part: All animal experiments were conducted in accordance with general animal welfare regulations in Germany and the institutional guidelines for the care and use of animals. To establish tumor xenografts, Jurkat cells (2-3×10^7 cells) were suspended in a mixture of Gibco's RPMI 1640 medium and Matrigel (1/1; v/v) from BD Biosciences (Heidelberg, Germany), and inoculated subcutaneously onto the right shoulder of 6-10 weeks old CB17-SCID mice from either Charles River GmbH (Sulzfeld, Germany) or the in-house mouse breeding facility. Mice were used when tumors had grown to a diameter of 5-8 mm (4-10 weeks after inoculation).
Approximately 0.5-20 MBq (0.02-0.20 nmol) of the ^125I-, ^177Lu-, ^99mTc-, ^18F- or ^68Ga-labeled ligand were injected into the tail vein of Jurkat tumor-bearing CB-17 SCID mice and the animals sacrificed after the respective biodistribution time. Selected organs were removed, weighted and measured in a γ-counter.

The mark [4] stands for this setting: unlabeled or cold (natGa/natLu) compound vs 125I-Fc-131, Jurkat cells.
Setting [5] is: Intestine, read-out: % iD/g Intestine.
The mark [6] stands for this setting: Kidney, read-out: % iD/g Kidney.
Setting [7] is: Muscle, read-out: % iD/g Muscle.
Setting [8] is: Pancreas, read-out: % iD/g Pancreas.
Setting [9] is: Spleen, read-out: % iD/g Spleen.
Setting [10] is: Stomach, read-out: % iD/g Stomach.

Where two headings read alike, the source gives them in different places. Starred links: 1 amine or outer side, 2 acyl side, 3 side chain; linkers in the order of their positions; H or OH if unused. Positions of bridges follow the written chain, without caps; N, C: chain ends. Non-standard residues stand in square brackets, D forms with d. Residues, ends and D or L forms follow the SMILES beside them. Groups on a side chain read outwards from the residue. Chains are numbered I, II in the order given. *: point of attachment. X6 = CN1/C(=C/C=C/C=C/C2=[N+](CCCCCC(=O)*)c3ccc(S(=O)(=O)[O-])cc3C2(C)C)C(C)(C)c2cc(S(=O)(=O)O)ccc21; X2 = OC[C@H]1O[C@@H](O[C@H]2[C@H](O)[C@@H](O)[C@H](*)O[C@@H]2CO)[C@H](O)[C@@H](O)[C@H]1O; X7 = O=C(O)CN1CCN(CC(=O)O)CCN([C@H](CCC(=O)*)C(=O)O)CCN(CC(=O)O)CC1; Benzoyl(4-SiFtBu2) = CC(C)(C)[Si](F)(c1ccc(C(=O)*)cc1)C(C)(C)C; X5 = CC(C)(C)[Si](F)(c1ccc(C[N+](C)(C)CC(=O)*)cc1)C(C)(C)C; DOTA = O=C(O)CN1CCN(CC(=O)O)CCN(CC(=O)*)CCN(CC(=O)O)CC1; Dolaproine = CO[C@@H]([C@@H]1CCCN1)[C@@H](C)C(=O)O; Dil = CC[C@H](C)[C@H](NC)[C@@H](CC(=O)O)OC; d(γGlu) = O=C(O)[C@@H](CCC(=O)[*:2])N[*:1]; Tyr(3-I) = N[C@@H](Cc1ccc(O)c(I)c1)C(=O)O; X11 = O=C1CC([*:2])C(=O)N1CCCCCC(=O)[*:1]; 2Nal = N[C@@H](Cc1ccc2ccccc2c1)C(=O)O; d2Nal = N[C@H](Cc1ccc2ccccc2c1)C(=O)O; PABC = O=C(OCc1ccc(N[*:1])cc1)[*:2]; X10 = C[C@@H](N*)[C@@H](O)c1ccccc1; Cit = NC(=O)NCCC[C@H](N)C(=O)O; dNMeOrn = CN[C@H](CCCN)C(=O)O; NMeV = CN[C@H](C(=O)O)C(C)C; d(hCys) = N[C@H](CCS)C(=O)O; Mercaptoacetyl = O=C(CS)*; 4Abz = Nc1ccc(C(=O)O)cc1; dDap = NC[C@@H](N)C(=O)O; CO = O=C([*:1])[*:2]; Ahx = NCCCCCC(=O)O

A word on the IC50: it is the point on the concentration scale where inhibition reaches its midpoint. Lower therefore signals higher potency.

For the compound `CC[C@H](C)[C@@H]([C@@H](CC(=O)N1CCC[C@H]1[C@H](OC)[C@@H](C)C(=O)N[C@H](C)[C@@H](O)c1ccccc1)OC)N(C)C(=O)[C@@H](NC(=O)[C@H](C(C)C)N(C)C(=O)OCc1ccc(NC(=O)[C@H](CCCNC(N)=O)NC(=O)[C@@H](NC(=O)CCCCCN2C(=O)CC(SCC[C@@H](NC(C)=O)C(=O)N[C@H](CNC(=O)CC[C@H](C(=O)O)N3CCN(CC(=O)O)CCN(CC(=O)O)CCN(CC(=O)O)CC3)C(=O)NCCCCCC(=O)N[C@H](CN)C(=O)N[C@H](CCCNC(=N)N)C(=O)N[C@H](C)C(=O)Nc3ccc(C(=O)NCCC[C@@H]4C(=O)N[C@@H](CCCNC(=N)N)C(=O)N[C@@H](Cc5ccc6ccccc6c5)C(=O)NCC(=O)N[C@H](Cc5ccc(O)cc5)C(=O)N4C)cc3)C2=O)C(C)C)cc1)C(C)C` (stereo partly drawn) [CXCR4-MMAE-4] (I: V[Cit][PABC][NMeV]V[Dil][Dolaproine]-X10 / II: Ac-[d(hCys)][dDap](X7)[Ahx][dDap][dR][dA][4Abz] / III: cyclo([2Nal]G[dY][dNMeOrn]R); linker I:N-II:1 via X11; amide II:C-III:4), in series [1], the logD7.4 is −1.04 ± 0.07 (8). In series [2], this compound displayed an IC50 of 113 ± 20 nM.
`C[C@@H](NC(=O)[C@@H](CCCNC(=N)N)NC(=O)[C@@H](CN)NC(=O)CCCCC[N+]1=C(/C=C/C=C/C=C2/N(C)c3ccc(S(=O)(=O)O)cc3C2(C)C)C(C)(C)c2cc(S(=O)(=O)[O-])ccc21)C(=O)Nc1ccc(C(=O)NCCC[C@@H]2C(=O)N[C@@H](CCCNC(=N)N)C(=O)N[C@H](Cc3ccc4ccccc4c3)C(=O)NCC(=O)N[C@@H](Cc3ccc(O)c(I)c3)C(=O)N2C)cc1` [CXCR4-OI-2] (cyclo([Tyr(3-I)][dNMeOrn]([4Abz-dA-dR-dDap-X6])R[d2Nal]G)): the logD7.4 in series [1] is −1.83 ± 0.02 (5). This compound yielded an IC50 in series [2] (setting [4]) of 10.2 ± 3.95 nM. Also, the tissue uptake at 1 h in series [3] (Blood, read-out: % iD/g Blood) was found to be 1.73 %ID/g; in series [3] (Bone, read-out: % iD/g Bone), 1.2 %ID/g; in series [3] (Heart, read-out: % iD/g Heart), 1.84 %ID/g; in series [3] (setting [5]) it was 1.88 %ID/g; in series [3] (setting [6]) it was 13.9 %ID/g; in series [3] (Liver, read-out: % iD/g Liver), 35.3 %ID/g. Further, the tissue uptake at 1 h was 5.54 %ID/g in series [3] (Lung, read-out: % iD/g Lung); 0.41 %ID/g in series [3] (setting [7]); 1.1 %ID/g in series [3] (setting [8]); 16.1 %ID/g in series [3] (setting [9]); 4.01 %ID/g in series [3] (setting [10]); 1.46 %ID/g in series [3] (Thyroid, read-out: % iD/g Thyroid). Besides, the tissue uptake at 1 h in series [3] (Tumor, read-out: % iD/g Tumor) stood at 1.1 %ID/g.
On to `C[C@@H](NC(=O)[C@@H](CCCNC(=N)N)NC(=O)[C@@H](CN)NC(=O)[C@@H](CNC(=O)CC[C@H](C(=O)O)N1CCN(CC(=O)O)CCN(CC(=O)O)CCN(CC(=O)O)CC1)NC(=O)[C@@H](CNC(=O)c1ccc([Si](F)(C(C)(C)C)C(C)(C)C)cc1)NC(=O)CC[C@@H](NC(=O)N[C@H](CCC(=O)O)C(=O)O)C(=O)O)C(=O)Nc1ccc(C(=O)NCCC[C@@H]2C(=O)N[C@@H](CCCNC(=N)N)C(=O)N[C@@H](Cc3ccc4ccccc4c3)C(=O)NCC(=O)N[C@H](Cc3ccc(O)cc3)C(=O)N2C)cc1` [CXCR4-SiFA-4 [Lu]] (I: {dE-CO-d(γGlu)}-[dDap](Benzoyl(4-SiFtBu2))[dDap](X7)[dDap][dR][dA][4Abz] / II: cyclo([dY][dNMeOrn]R[2Nal]G); amide I:C-II:2), for which the logD7.4 in series [1] is listed as −1.71 ± 0.09 (8). The IC50 in series [2] (setting [4]) is 93.4 ± 10.2 nM.
On the same counts, the results for `C[C@@H](NC(=O)[C@@H](CCCNC(=N)N)NC(=O)[C@@H](CN)NC(=O)CCCCCNC(=O)[C@@H](CNC(=O)CC[C@H](C(=O)O)N1CCN(CC(=O)O)CCN(CC(=O)O)CCN(CC(=O)O)CC1)NC(=O)[C@@H](CNC(=O)c1ccc([Si](F)(C(C)(C)C)C(C)(C)C)cc1)NC(=O)CC[C@@H](NC(=O)N[C@H](CCC(=O)O)C(=O)O)C(=O)O)C(=O)Nc1ccc(C(=O)NCCC[C@@H]2C(=O)N[C@@H](CCCNC(=N)N)C(=O)N[C@@H](Cc3ccc4ccccc4c3)C(=O)NCC(=O)N[C@H](Cc3ccc(O)cc3)C(=O)N2C)cc1` [CXCR4-SiFA-5 [Lu]] (I: {dE-CO-d(γGlu)}-[dDap](Benzoyl(4-SiFtBu2))[dDap](X7)[Ahx][dDap][dR][dA][4Abz] / II: cyclo([dY][dNMeOrn]R[2Nal]G); amide I:C-II:2) are −1.73 ± 0.05 (6) and 45.8 ± 17.4 nM.
In the case of `C[C@@H](NC(=O)[C@@H](CCCNC(=N)N)NC(=O)[C@@H](CN)NC(=O)CCCCCNC(=O)[C@@H](CNC(=O)CC[C@H](C(=O)O)N1CCN(CC(=O)O)CCN(CC(=O)O)CCN(CC(=O)O)CC1)NC(=O)C[N+](C)(C)Cc1ccc([Si](F)(C(C)(C)C)C(C)(C)C)cc1)C(=O)Nc1ccc(C(=O)NCCC[C@@H]2C(=O)N[C@@H](CCCNC(=N)N)C(=O)N[C@@H](Cc3ccc4ccccc4c3)C(=O)NCC(=O)N[C@H](Cc3ccc(O)cc3)C(=O)N2C)cc1` [CXCR4-SiFA-6 [Lu]], the logD7.4 in series [1] was −0.85 ± 0.04 (6). For the same compound, the IC50 in series [2] (setting [4]) came to 8.29 ± 3.11 nM.
On to `C[C@@H](NC(=O)[C@@H](CCCNC(=N)N)NC(=O)[C@@H](CN)NC(=O)CCCCCNC(=O)[C@@H](CNC(=O)CN1CCN(CC(=O)O)CCN(CC(=O)O)CCN(CC(=O)O)CC1)NC(=O)[C@@H](CCS[C@@H]1O[C@H](CO)[C@@H](O[C@@H]2O[C@H](CO)[C@H](O)[C@H](O)[C@H]2O)[C@H](O)[C@H]1O)NC(=O)C[N+](C)(C)Cc1ccc([Si](F)(C(C)(C)C)C(C)(C)C)cc1)C(=O)Nc1ccc(C(=O)NCCC[C@@H]2C(=O)N[C@@H](CCCNC(=N)N)C(=O)N[C@@H](Cc3ccc4ccccc4c3)C(=O)NCC(=O)N[C@H](Cc3ccc(O)cc3)C(=O)N2C)cc1` [CXCR4-SiFA-7 [Lu]] (I: X5-[d(hCys)](X2)[dDap](DOTA)[Ahx][dDap][dR][dA][4Abz] / II: cyclo([dY][dNMeOrn]R[2Nal]G); amide I:C-II:2), for which the logD7.4 in series [1] is given as −2.23 ± 0.11 (7). The IC50 in series [2] (setting [4]) was 6.05 ± 1.17 nM.
The compound `C[C@@H](NC(=O)[C@@H](CCCNC(=N)N)NC(=O)[C@@H](Cc1c[nH]cn1)NC(=O)[C@@H](CO)NC(=O)[C@@H](CO)NC(=O)[C@@H](CO)NC(=O)CS)C(=O)Nc1ccc(C(=O)NCCC[C@@H]2C(=O)N[C@@H](CCCNC(=N)N)C(=O)N[C@@H](Cc3ccc4ccccc4c3)C(=O)NCC(=O)N[C@H](Cc3ccc(O)cc3)C(=O)N2C)cc1` [Tc-CXCR4-5] (I: Mercaptoacetyl-[dS][dS][dS][dH][dR][dA][4Abz] / II: cyclo([dY][dNMeOrn]R[2Nal]G); amide I:C-II:2) showed an IC50 in series [2] of 11 ± 1.3 nM. In addition, the tissue uptake at 1 h was found to be 0.42 %ID/g in series [3] (Adrenal, read-out: % iD/g Adrenal); 0.65 %ID/g in series [3] (Blood, read-out: % iD/g Blood); 1.55 %ID/g in series [3] (Bone, read-out: % iD/g Bone); 0.48 %ID/g in series [3] (Heart, read-out: % iD/g Heart); 0.76 %ID/g in series [3] (setting [5]); 2.89 %ID/g in series [3] (setting [6]). The tissue uptake at 1 h in series [3] (Liver, read-out: % iD/g Liver) worked out at 2.42 %ID/g; in series [3] (Lung, read-out: % iD/g Lung) it was 1.57 %ID/g; in series [3] (setting [7]) it was 0.15 %ID/g; in series [3] (setting [8]), 0.4 %ID/g; in series [3] (setting [9]), 8.47 %ID/g; in series [3] (setting [10]) it was 0.7 %ID/g. Also, in series [3] (Tumor, read-out: % iD/g Tumor), the tissue uptake at 1 h came to 1.48 %ID/g.
